Results taken from publication PMC3652819, “A Cocoa Peptide Protects Caenorhabditis elegans from Oxidative Stress and β-Amyloid Peptide Toxicity” (PLoS ONE, 2013).
Residues, ends and D or L forms follow the SMILES beside them. No end group written: not given here. *: point of attachment. Cbz = O=C(OCc1ccccc1)*

How the values were obtained:
[1] = system: Aβ42; conditions: C. elegans; ref [36], [37]; cited from earlier work
Source text: (§1) This could be explained by the release of bioactive peptides from the protein fraction of the by-product.

[2] = system: C. elegans strain CL4176 (Aβ1–42); conditions: ref [36], [37]; cited from earlier work
Source text: as §1

[3] = system: C. elegans wild-type strain N2; assay: survival of wild-type C. elegans N2 after H2O2-induced oxidative stress; type: in vivo, Caenorhabditis elegans; conditions: compared with NGM
Protocol: Experiments of oxidative stress, body fat reduction and microarrays were carried out with the wild-type strain N2 (Bristol). Paralysis assays were performed with the transgenic strain CL4176 (smg-1^ts [pAF29(myo-3/Aβ1–42/let UTR)+pRF4(rol-6(su10069))]). Paralysis is induced in strain CL4176 by expression of a muscle-specific Aβ1–42, which depends on up-shifting temperature from 16 to 25°C [21], [22]. Mutant strain GR1321 (tph-1(mg280)) was used in body fat reduction experiments. All the strains were obtained from the Caenorhabditis Genetics Center (University of Minnesota).
Caenorhabditis elegans N2 and tph-1 were routinely propagated on Nematode Growth Medium (NGM) plates with Escherichia coli strain OP50 as a food source at 20°C, while CL4176 was maintained at 16°C. Worms were synchronized by isolating eggs from gravid adults at 20°C (N2 and tph-1) or 16°C (CL4176), and eggs were hatched overnight in NGM plates. In the experiments, the worms were fed with the different compounds from egg through to adult stages, and transferred to new plates every two days. […]
Viability of C. elegans was assessed after oxidative stress and differences between nematodes cultured in control and treatment conditions were evaluated by means of one-way analysis of variance (ANOVA) using Statgraphics plus (version 5.1) software (Manugistics, Rockville, MD).

[4] = molecular target: T1, prolyl endopeptidase (PEP) (Elizabethkingia meningoseptica, UniProt P27028); assay: biochemical
T1 construct: purchased Seikagaku Corporation, Tokyo, Japan
T1 sequence (P27028 21-705): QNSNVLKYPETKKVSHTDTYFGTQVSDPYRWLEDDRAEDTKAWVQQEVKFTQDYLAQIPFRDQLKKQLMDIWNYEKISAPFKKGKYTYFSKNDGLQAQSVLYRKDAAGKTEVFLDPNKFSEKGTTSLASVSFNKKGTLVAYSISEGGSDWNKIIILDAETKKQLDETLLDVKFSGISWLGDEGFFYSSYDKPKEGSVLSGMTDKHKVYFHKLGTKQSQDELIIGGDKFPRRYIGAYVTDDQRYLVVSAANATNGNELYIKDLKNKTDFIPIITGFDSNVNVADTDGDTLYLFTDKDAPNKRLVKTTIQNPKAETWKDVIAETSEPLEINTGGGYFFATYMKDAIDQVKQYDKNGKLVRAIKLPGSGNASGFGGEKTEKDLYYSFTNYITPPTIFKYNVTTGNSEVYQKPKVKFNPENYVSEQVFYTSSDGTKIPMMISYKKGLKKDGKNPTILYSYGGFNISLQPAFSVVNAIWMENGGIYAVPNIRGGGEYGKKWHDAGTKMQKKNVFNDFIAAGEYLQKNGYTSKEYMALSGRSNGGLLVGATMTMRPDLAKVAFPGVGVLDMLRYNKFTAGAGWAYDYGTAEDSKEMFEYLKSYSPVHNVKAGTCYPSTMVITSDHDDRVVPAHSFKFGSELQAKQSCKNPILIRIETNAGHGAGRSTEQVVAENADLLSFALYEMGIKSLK
Protocol: Prolyl endopeptidase (PEP) activity was determined using a previously described method. Reaction was performed by addition of 0.1 U/ml of PEP (Seikagaku Corporation, Tokyo, Japan) to a 100 mM phosphate buffer pH 7 containing 2 mM of Z-Gly-Pro-p-nitroaniline (Sigma, Madrid, Spain). Samples were incubated for 20 min at 30°C and then the reaction was stopped by adding a volume of 10.5% Triton X-100 in 1 M sodium acetate buffer pH 4. The amount of ρ-nitroaniline released was quantified by spectrophotometry at 410 nm. The inhibitory activity of PEP was determined by adding 100 µl of each sample obtained during the purification process to the enzymatic reaction. Z-Prolyl-Prolinal (ZPP) (0.000426 ppm, Biomol, Plymouth Meeting, USA) was used as positive control of inhibition.

[5] = system: C. elegans strain CL4176 (Aβ1–42); assay: body paralysis assay in transgenic C. elegans CL4176 expressing human Aβ1-42; type: in vivo, Caenorhabditis elegans; conditions: for effect on body paralysis (in words): compared with NGM controls; for Mid Paralysis (h), time when 50% of worms were paralyzed / % of worms non paralyzed at onset of paralysis / Onset Paralysis, time: peptides 1 µg/mL, ZPP 1 µM, “Barquillo” 10 µL/mL, fractions 10 µL/mL; for Mid Paralysis (h), time when 50% of worms were paralyzed: NGM 47 h; for % of worms non paralyzed at onset of paralysis: at the onset time, NGM 85.8%; for Onset Paralysis, time: time after Aβ42 induction, NGM 41 h
Protocol: Mutant strain GR1321 (tph-1(mg280)) was used in body fat reduction experiments. All the strains were obtained from the Caenorhabditis Genetics Center (University of Minnesota). Caenorhabditis elegans N2 and tph-1 were routinely propagated on Nematode Growth Medium (NGM) plates with Escherichia coli strain OP50 as a food source at 20°C, while CL4176 was maintained at 16°C. Worms were synchronized by isolating eggs from gravid adults at 20°C (N2 and tph-1) or 16°C (CL4176), and eggs were hatched overnight in NGM plates. In the experiments, the worms were fed with the different compounds from egg through to adult stages, and transferred to new plates every two days. […] ZPP (1 µM) was used as an internal positive control. Transgene expression was induced by up-shifting the temperature from 16°C to 25°C, starting 24 h after egg lying and maintained for 24 h. Then worms were incubated at 20°C until all the worms in the experiment became paralyzed. […] Paralysis in induced worms was compared with non-induced worms (maintained at 16°C until the end of the paralysis assay). Experiments were carried out in triplicate.

Compound: COC(=O)[C@H]1[C@H]2C[C@@H]3c4[nH]c5cc(OC)ccc5c4CCN3C[C@H]2C[C@@H](OC(=O)c2cc(OC)c(OC)c(OC)c2)[C@@H]1OC [reserpine]
- effect on Aβ peptide expression levels (in words) [1]: no effects were observed in Aβ peptide expression levels
- effect on paralysis (in words) [2]: effect on delaying paralysis

Compound: TDGVKGEPGPNTL [13R, synthesized peptide from the 21 kDa seed protein of Theobroma cacao]
- effect on worm survival after oxidative stress (in words) [3]: did not produce a significant effect on worm survival rates
- inhibitory activity (IC50) against PEP enzyme ([4]; synthetic peptides, 0.1 U/ml PEP, 2 mM Z-Gly-Pro-p-nitroaniline, pH 7, 20 min at 30°C, 410 nm): > 1480 µg/mL
- effect on body paralysis (in words) [5]: ability to ameliorate Aβ-induced paralysis
- Mid Paralysis (h), time when 50% of worms were paralyzed [5]: 49 h
- % of worms non paralyzed at onset of paralysis [5]: 83.4%
- Onset Paralysis, time [5]: 41 h

Compound: NYDNSAGKW [9L, NYDNSAGKW]
- IC50 [4]: 484 µM

Compound: GVKGEPGPNTL [11R, GVKGEPGPNTL]
- effect on worm survival after oxidative stress (in words) [3]: significant protection upon oxidative stress
- effect on body paralysis (in words) [5]: ability to ameliorate Aβ-induced paralysis
- Mid Paralysis (h), time when 50% of worms were paralyzed [5]: 49 h
- % of worms non paralyzed at onset of paralysis [5]: 89.9%
- Onset Paralysis, time [5]: 41 h

Compound: O=C[C@@H]1CCCN1C(=O)[C@@H]1CCCN1C(=O)OCc1ccccc1 [ZPP, Z-Prolyl-Prolinal, reference compound] (Cbz-Pro-Pro-aldehyde)
- Mid Paralysis (h), time when 50% of worms were paralyzed [5]: >49 h
- % of worms non paralyzed at onset of paralysis [5]: 96.7%
- Onset Paralysis, time [5]: 41 h

Compound: DNYDNSAGKWWVT [13L, DNYDNSAGKWWVT]
- IC50 [4]: 122 µM
